Literature values as cited in patent publication US20080161337A1 (priority 2007, published 2008).

Tests used:
SIBO [1] = conditions: for clinical efficacy for treating SIBO: antibiotics traditionally recommended for treating SIBO
IBS patients [2] = system: IBS patients
[3] = system: functional bowel syndrome patients with abnormal LBT; conditions: 20 functional bowel syndrome patients with abnormal LBT; 63-day average follow up
[4] = system: IBS patients with abnormal LBT; conditions: 82 IBS patients with abnormal LBT; 54-day average follow up
SIBO [5] = conditions: 21 patients with SIBO
SIBO [6] = conditions: 34 patients with SIBO and functional gastrointestinal symptoms
IBS patients [7] = conditions: 86 IBS patients; sustained for ten weeks after a ten day course

Row | Molecule | clinical efficacy for treating SIBO (SIBO [1]) [%] | results versus placebo (IBS patients [2]; 111 IBS patients randomized to neomycin or placebo) | improvement of symptoms (IBS patients [2]; when the LBT was normalized) [%] | combined global improvement rated great and moderate [3] [%] | combined global improvement rated great and moderate [4] [%] | improvement in functional gastrointestinal symptoms (SIBO [5]) | patients with normalized LBT (SIBO [5]; rifaximin seven days at 1200 mg/day) [%] | LBT results and functional gastrointestinal symptoms (SIBO [6]) | effectiveness against SIBO (SIBO [1]; human, in vivo) | solubility in water | global IBS symptoms (IBS patients [7])
1 | Cc1ncc([N+](=O)[O-])n1CCO [metronidazole] | 5 |  |  |  |  |  |  |  |  |  | 
2 | neomycin | 25 | significantly better results | 75 |  |  |  |  |  |  |  | 
3 | CO[C@H]1/C=C/O[C@@]2(C)Oc3c(C)c(O)c4c(O)c(c5c(nc6cc(C)ccn65)c4c3C2=O)NC(=O)/C(C)=C\C=C\[C@H](C)[C@H](O)[C@@H](C)[C@@H](O)[C@@H](C)[C@H](OC(C)=O)[C@@H]1C [rifaximin] |  |  |  | 63 | 60 | greater with rifaximin than chlortetracycline | 70 | improved LBT results and functional gastrointestinal symptoms | highly effective against SIBO | practically insoluble in water | statistically significant improvement
